{
  "source": "patent US20190365771A1",
  "about": "“APILIMOD COMPOSITIONS AND METHODS FOR USING SAME IN THE TREATMENT OF ALZHEIMER'S DISEASE” (AI Therapeutics, Inc., priority 2016, published 2019)",
  "key": {"[1]": {"test_system": "Hela cells transiently transfected with C99 APP truncated mutant (C99)", "assay": "Ab 40 ELISA of supernatants of Hela cells transfected with C99 construct", "format": "cell-based, human", "settings": "treated two days with 10000, 1000, 100, 1 nM, FIG. 2", "from_the_text": "(§1) The Amyloid precursor protein (APP) can be processed by proteases, first by beta secretase (BACE1) then followed by gamma secretase to generate peptide fragments including sizes of 40 and 42 amino acids named abeta (Ab), e.g. Ab 1-40 and Ab 1-42. Several familial Alzheimer disease-related mutations and truncated mutants in the APP gene have been described in the investigation of APP processing to Ab in vitro and in vivo. […] Briefly, two constructs were used to generate Ab:(1) APP Swedish/Indiana double mutant (APPSw-I) in the 695 amino acid APP construct combines the Swedish mutant APP K670N, M671L (Mullan M et al, A pathogenic mutation for probable Alzheimer's disease in the APP gene at the N-terminus of beta-amyloid. Nat Genet., 1992 August; 1(5):345-7) and the Indiana mutation APP V717F (Suzuki N et al, An increased percentage of long amyloid beta protein secreted by familial amyloid beta protein precursor (beta APP717) mutants. Science, 1994 May 27; 264(5163): 1336-40); and (2) C99 APP truncated mutant (C99) fragment encoding the last 99-aa of APP 695, this construct mimics the BACE1 cleaved APP at the major Asp+1 site of Aβ to generate C99. […]"}, "[2]": {"test_system": "Hela cells transiently transfected with APP Swedish/Indiana double mutant (APPSw-I)", "assay": "Ab 40 ELISA of supernatants of Hela cells transfected with APPSw-I construct", "format": "cell-based, human", "settings": "treated two days with 10000, 1000, 100, 1 nM, FIG. 1", "from_the_text": "as §1"}},
  "data": [
    {"compound": "Cc1cccc(/C=N/Nc2cc(N3CCOCC3)nc(OCCc3ccccn3)n2)c1", "note": "[apilimod]", "values": [
      {"measurement": "Ab concentration in cell culture supernatant", "setting": "[1]", "result": "dose dependent decrease of Ab"},
      {"measurement": "Ab concentration in cell culture supernatant", "setting": "[2]", "result": "dose dependent decrease of Ab"}
    ]}
  ]
}
